The structures appear in SMILES notation. A value given as a limit tells only on which side of the number the result lay.

This assay concerns the target Tie-2 (Homo sapiens, UniProt Q02763). Description: Tie-2 tyrosine kinase inhibition (ATP consumption by luciferase/luciferin chemiluminescence or 33P-ATP incorporation into pEY substrate). Format: biochemical. The conditions noted are these: human enzyme Tie-2; inhibition given as class symbol. As to the method:
Tyrosine kinase activity is determined by 1) measurement of kinase-dependent ATP consumption by in the presence of a generic substrate such as polyglutamine, tyrosin (pEY), by luciferase/luciferin-mediated chemiluminescence or; 2) incorporation of radioactive phosphate derived from ^33P-ATP into a generic substrate which has been adsorbed onto the well surface of polystyrene microtiter plates. Phosphorylated substrate products are quantified by scintillation spectrometry.
Inhibition is indicated as IC50 with following key: A=IC50 less than 50 nM, B=IC50 greater than 50 nM, but less than or equal to 1000 nM, C=IC50 greater than 1000 nM, but less than 10,000 nM, and D=IC50 10,000 nM or greater. The abbreviation for human enzyme, Tie-2, is defined as tyrosine kinase with immunoglobulin and EGF repeats.

Sequence of Tie-2 (Q02763 23-1124): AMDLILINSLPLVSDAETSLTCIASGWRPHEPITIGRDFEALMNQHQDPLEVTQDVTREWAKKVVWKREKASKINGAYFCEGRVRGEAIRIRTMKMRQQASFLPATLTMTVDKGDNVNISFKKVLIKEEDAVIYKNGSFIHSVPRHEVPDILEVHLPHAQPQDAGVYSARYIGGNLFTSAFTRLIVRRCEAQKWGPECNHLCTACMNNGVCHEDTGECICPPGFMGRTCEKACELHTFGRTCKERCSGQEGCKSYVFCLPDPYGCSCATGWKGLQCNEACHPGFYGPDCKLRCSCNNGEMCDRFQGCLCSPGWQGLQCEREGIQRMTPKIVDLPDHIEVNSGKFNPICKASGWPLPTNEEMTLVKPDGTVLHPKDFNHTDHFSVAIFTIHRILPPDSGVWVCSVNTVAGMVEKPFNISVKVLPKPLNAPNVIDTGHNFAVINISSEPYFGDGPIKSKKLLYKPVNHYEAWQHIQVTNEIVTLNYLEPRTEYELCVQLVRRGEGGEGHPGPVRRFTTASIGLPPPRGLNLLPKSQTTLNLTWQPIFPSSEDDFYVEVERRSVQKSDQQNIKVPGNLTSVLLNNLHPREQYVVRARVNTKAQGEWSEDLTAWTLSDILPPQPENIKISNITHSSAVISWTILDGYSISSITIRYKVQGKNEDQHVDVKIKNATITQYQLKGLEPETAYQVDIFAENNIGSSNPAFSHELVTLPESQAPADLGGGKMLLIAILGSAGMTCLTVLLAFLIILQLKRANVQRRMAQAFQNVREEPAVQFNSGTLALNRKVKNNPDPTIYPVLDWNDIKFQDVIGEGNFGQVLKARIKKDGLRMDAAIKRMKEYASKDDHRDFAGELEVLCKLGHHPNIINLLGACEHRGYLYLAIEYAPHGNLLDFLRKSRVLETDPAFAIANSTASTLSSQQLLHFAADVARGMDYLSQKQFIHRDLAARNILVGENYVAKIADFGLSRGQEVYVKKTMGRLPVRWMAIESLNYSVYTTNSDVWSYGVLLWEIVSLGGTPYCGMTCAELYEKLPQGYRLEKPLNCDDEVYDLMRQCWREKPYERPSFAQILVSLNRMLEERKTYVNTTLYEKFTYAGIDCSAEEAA

As for `CCc1cc(-c2nc(N[C@@H]3c4ccccc4C[C@@H]3O)c3ccccc3n2)ccn1` [Compound 44, (1R,2S)-1-{[2-(2-ethylpyridin-4-yl)quinazolin-4-yl]amino}-2,3-dihydro-1H-inden-2-ol], the IC50 (in general, the concentration needed to halve the response being measured) is at least 10 µM.
To `O[C@@H]1Cc2ccccc2[C@@H]1Nc1nc(-c2ccncc2)nc2ccc(Br)cc12` [Compound 45, (1S,2R)-1-[(6-bromo-2-pyridin-4-ylquinazolin-4-yl)amino]-2,3-dihydro-1H-inden-2-ol] belongs below 0.05 µM; to `COc1cc2nc(-c3ccncc3)nc(N[C@H]3c4ccccc4C[C@H]3O)c2cc1OC` [Compound 46, (1S,2R)-1-{[6,7-bis(methyloxy)-2-pyridin-4-ylquinazolin-4-yl]amino}-2,3-dihydro-1H-inden-2-ol], 0.05 to 1 µM.
Turning to `OC1CCCN(c2nc(-c3ccncc3)nc3ccccc23)C1` (stereo not drawn) [Compound 47, 1-(2-pyridin-4-ylquinazolin-4-yl)piperidin-3-ol], the IC50 is at least 10 µM.
`O[C@@H]1Cc2ccccc2[C@@H]1Nc1nc(-c2ccncc2)nc2cc(C(F)(F)F)ccc12` [Compound 48, (1S,2R)-1-{[2-pyridin-4-yl-7-(trifluoromethyl)quinazolin-4-yl]amino}-2,3-dihydro-1H-inden-2-ol] showed an IC50 of 0.05 to 1 µM.
To `COc1ccc(-c2nc(N[C@H]3c4ccccc4C[C@H]3O)c3ccccc3n2)cn1` [Compound 49, (1S,2R)-1-({2-[6-(methyloxy)pyridin-3-yl]quinazolin-4-yl}amino)-2,3-dihydro-1H-inden-2-ol] belongs 1 to 10 µM; to `c1ccc2c(N[C@H]3CCCNC3)nc(-c3ccncc3)nc2c1` [Compound 50, N-[(3S)-piperidin-3-yl]-2-pyridin-4-ylquinazolin-4-amine], at least 10 µM.
To `Cc1ccc2c(N[C@H]3c4ccccc4C[C@H]3O)nc(-c3ccncc3)nc2c1` [Compound 51, (1S,2R)-1-[(7-methyl-2-pyridin-4-ylquinazolin-4-yl)amino]-2,3-dihydro-1H-inden-2-ol] belongs below 0.05 µM; to `COc1ncc(-c2nc(N[C@H]3c4ccccc4C[C@H]3O)c3ccccc3n2)c(OC)n1` [Compound 52, (1S,2R)-1-({2-[2,4-bis(methyloxy)pyrimidin-5-yl]quinazolin-4-yl}amino)-2,3-dihydro-1H-inden-2-ol], at least 10 µM.
On to `CC(C)[C@H](CO)Nc1nc(-c2ccncc2)nc2ccccc12` [Compound 53, (2R)-3-methyl-2-[(2-pyridin-4-ylquinazolin-4-yl)amino]butan-1-ol], for which the IC50 was at least 10 µM.
On to `CC(C)[C@@H](CO)Nc1nc(-c2ccncc2)nc2ccccc12` [Compound 54, (2S)-3-methyl-2-[(2-pyridin-4-ylquinazolin-4-yl)amino]butan-1-ol], for which the IC50 is 1 to 10 µM.
To `OC[C@@H](Nc1nc(-c2ccncc2)nc2ccccc12)c1ccccc1` [Compound 55, (2S)-2-phenyl-2-[(2-pyridin-4-ylquinazolin-4-yl)amino]ethanol] belongs 1 to 10 µM; to `OC[C@H](Nc1nc(-c2ccncc2)nc2ccccc12)c1ccccc1` [Compound 56, (2R)-2-phenyl-2-[(2-pyridin-4-ylquinazolin-4-yl)amino]ethanol], 1 to 10 µM.
To `O[C@@H]1Cc2ccccc2[C@@H]1Nc1ccnc(-c2ccncc2)n1` [Compound 57, (1S,2R)-1-[(2-pyridin-4-ylpyrimidin-4-yl)amino]-2,3-dihydro-1H-inden-2-ol] belongs 0.05 to 1 µM.
To `O[C@@H]1Cc2ccccc2[C@@H]1Nc1nc(-c2cnccn2)nc2ccccc12` [Compound 58, (1S,2R)-1-[(2-pyrazin-2-ylquinazolin-4-yl)amino]-2,3-dihydro-1H-inden-2-ol] belongs at least 10 µM; to `Nc1ccncc1-c1nc(N[C@H]2c3ccccc3C[C@H]2O)c2ccccc2n1` [Compound 59, (1S,2R)-1-{[2-(4-aminopyridin-3-yl)quinazolin-4-yl]amino}-2,3-dihydro-1H-inden-2-ol], at least 10 µM.
The molecule `OC[C@@H](Cc1ccccc1)Nc1nc(-c2ccncc2)nc2ccccc12` [Compound 60, (2R)-3-phenyl-2-[(2-pyridin-4-ylquinazolin-4-yl)amino]propan-1-ol] returned an IC50 of at least 10 µM.
In the case of `OC[C@H](Cc1ccccc1)Nc1nc(-c2ccncc2)nc2ccccc12` [Compound 61, (2S)-3-phenyl-2-[(2-pyridin-4-ylquinazolin-4-yl)amino]propan-1-ol], the IC50 lay in the range of 1 to 10 µM.
To `OCCN(Cc1ccccc1)c1nc(-c2ccncc2)nc2ccccc12` [Compound 62, 2-[(phenylmethyl)(2-pyridin-4-ylquinazolin-4-yl)amino]ethanol] belongs 1 to 10 µM; to `Nc1nccc(-c2nc(N[C@H]3c4ccccc4C[C@H]3O)c3ccccc3n2)n1` [Compound 63, (1S,2R)-1-{[2-(2-aminopyrimidin-4-yl)quinazolin-4-yl]amino}-2,3-dihydro-1H-inden-2-ol], 0.05 to 1 µM; to `Oc1ccc(-c2nc(N[C@H]3c4ccccc4C[C@H]3O)c3ccccc3n2)cn1` [Compound 64, 5-(4-{[(1S,2R)-2-hydroxy-2,3-dihydro-1H-inden-1-yl]amino}quinazolin-2-yl)pyridin-2-ol], at least 10 µM.
To `CSc1nccc(-c2nc(N[C@H]3c4ccccc4C[C@H]3O)c3ccccc3n2)n1` [Compound 65, (1S,2R)-1-({2-[2-(methylthio)pyrimidin-4-yl]quinazolin-4-yl}amino)-2,3-dihydro-1H-inden-2-ol] belongs at least 10 µM.
To `OCCN1CCN(Nc2nc(-c3ccncc3)nc3ccccc23)CC1` [Compound 66, 2-{-4-[(2-pyridin-4-ylquinazolin-4-yl)amino]piperazin-1-yl}ethanol] belongs at least 10 µM.
Consider `c1ccc2c(NN3CCCCC3)nc(-c3ccncc3)nc2c1` [Compound 67, N-piperidin-1-yl-2-pyridin-4-ylquinazolin-4-amine], for which the IC50 is at least 10 µM.

For the origin of these results see US7763627B2, “Tie-2 modulators and methods of use” (Exelixis, Inc., priority 2003, dated 2010).
